Results published in patent US9931367B2, “Uses of cistanche tubulosa extract and isoacteoside in protecting muscle” (SINPHAR TIAN-LI PHARMACEUTICAL CO., LTD. (HANGZHOU), priority 2016, dated 2018).

Assays:
[1] = tested on: C2C12 cells with TNF-α induced injury; assay: Protection of C2C12 cells against TNF-α induced injury (survival rate, MMP, intracellular ROS); assay type: cell-based, mice; details: pre-treated 6 h, then 10 ng/mL TNF-α 4 days
Protocol: C2C12 cells were cultured in H-DMEM medium until 80% confluence was attained. Thereafter, the cells were separated into eleven groups, wherein seven groups thereof were provided with the Cistanche tubulosa extract (CIS) solution (dissolved in DMSO) to provide final concentrations of 0, 1, 5, 10, 50, 100, 500 μg/mL, respectively, and then pre-treatment was carried out for 6 hours; the other three groups were provided with branched chain amino acids (BCAA; served as a positive control) to provide final concentrations of 0.1, 1 or 10 μg/mL respectively, and then pre-treatment was carried out for 6 hours; thereafter, the mediums of the above ten groups (seven groups provided with CIS and three groups provided with BCAA) were replaced by differentiation mediums supplemented with 2% horse serum, and TNA-α was then added into those mediums to provide a final concentration of 10 ng/mL, and then co-treated with differentiation medium for 4 days; the last group served as a control group, which was not treated with the Cistanche tubulosa extract, BCAA, or TNA-α. Finally, the survival rates, MMPs and intracellular ROSs of the C2C12 cells in each group were measured. The control group served as a basis for calculating the relative survival rates, MMPs, and intracellular ROSs of the other groups to determine the effective concentration of Cistanche tubulosa extract for providing a protective effect against the TNF-α induced muscle cell injury. The results are shown in FIG. 3 and FIG. 4 (all the data are presented as average values±SEM, n=6, analyzed with a t-test, *p<0.05, **p<0.01, ***p<0.001).
According to the results of Example 1, echinacoside (Ech), verbascoside (VB) and isoacteoside (Iso) are the main ingredients of the Cistanche tubulosa extract. To investigate whether the echinacoside, verbascoside and isoacteoside have the effect of protecting muscles, the echinacoside, verbascoside and isoacteoside (all purchased from ChromaDex company, U.S.) were dissolved in DMSO to provide a echinacoside solution, a verbascoside solution and a isoacteoside solution. C2C12 cells were cultured in H-DMEM medium until 80% confluence was attained. Thereafter, the cells were separated into eighteen groups and treated as follows: • (1) Control group: cells were cultured in H-DMEM medium for 6 hours; thereafter the medium was replaced by a differentiation medium supplemented with 2% horse serum, and the cells were cultured for 4 days. • (2) TNF-α group: cells were cultured in H-DMEM medium for 6 hours; thereafter the medium was replaced by a differentiation medium supplemented with 2% horse serum, and TNF-α was then added into the medium (the final concentration was 10 ng/mL) to carry out a co-treatment for 4 days. • (3) TNF-α+echinacoside group (6 groups): the echinacoside solution was added into H-DMEM mediums to provide final concentrations of 1, 5, 10, 50, 100, or 500 μg/mL, respectively. The cells were pre-treated with the above mediums for 6 hours. Thereafter, the mediums were replaced by differentiation mediums supplemented with 2% horse serum, and TNF-α was then added into the mediums (the final concentration was 10 ng/mL) to carry out co-treatments for 4 days. • (4) TNF-α+verbascoside group (5 groups): the verbascoside solution was added into H-DMEM mediums to provide final concentration of 1, 5, 10, 50, or 100 μg/mL, respectively. The cells were pre-treated with the above mediums for 6 hours. Thereafter, the mediums were replaced by differentiation mediums supplemented with 2% horse serum, and TNF-α was then added into the mediums (the final concentration was 10 ng/mL) to carry out co-treatments for 4 days. • (5) TNF-α+isoacteoside group (5 groups): the isoacteoside solution was added into H-DMEM mediums to provide final concentrations of 1, 5, 10, 50, or 100 μg/mL, respectively. The cells were pre-treated with the above mediums for 6 hours. […]

C2C12 cells = assay: Establishment of TNF-α induced muscle cell injury model (MMP, intracellular ROS); assay type: cell-based, mice; details: 4 days, relative to 0 ng/mL group
Protocol: Firstly, C2C12 cells (i.e., muscle cells of mice, purchased from ATCC) were cultured in H-DMEM medium (purchased from Sigma company) until 80% confluence was attained (i.e., the mixed cell monolayer comprises 80% of area). Thereafter, the cells were separated into four groups, and the mediums of all the groups were replaced by differentiation mediums supplemented with 2% horse serum. TNF-α (purchased from Sigma company) was then added into those mediums to provide final concentrations of 0, 2, 5, 10 ng/mL respectively. After being co-treated with the differentiation medium and TNF-α for 4 days, the mitochondrial membrane potential (MMP) and intracellular reactive oxidative stress (ROS) of the C2C12 cells were measured to serve as the index for model evaluation. Accordingly, a TNF-α induced muscle cell injury model was established. Finally, the group that was not treated with TNF-α (i.e., the concentration of TNF-α was 0 ng/mL) served as a basis for calculating the relative MMPs and intracellular ROSs of the other groups. The results are shown in FIG. 1 (all the data are presented as average values±SEM, n=6, analyzed with a t-test, *p<0.05, ***p<0.001).

Compound: C[C@@H]1O[C@@H](O[C@@H]2[C@@H](O)[C@H](OCCc3ccc(O)c(O)c3)O[C@H](COC(=O)/C=C/c3ccc(O)c(O)c3)[C@H]2O)[C@H](O)[C@H](O)[C@H]1O [isoacteoside]
- decrease in the MMP induced by TNF-α ([1]; 100 μg/mL): significantly ameliorated
- survival rate ([1]; 5 to 100 μg/mL): increased
- intracellular ROS ([1]; 10 to 100 μg/mL): significantly decreased

Compound: echinacoside
- concentration at which the protective effect (survival rate) became significant ([1]; 5 to 500 μg/mL tested): 100 µg/mL
- protective effect on MMP ([1]; 5 to 500 μg/mL): did not exhibit protective effect
- protective effect on ROS ([1]; 5 to 500 μg/mL): did not exhibit protective effect
- protective effect (survival rate) ([1]; lower concentration within 5 to 500 μg/mL): not significant

Compound: TNF-α
- intracellular reactive oxidative stress (ROS) (C2C12 cells; 5 ng/mL TNF-α): slightly increased
- mitochondrial membrane potential (MMP) (C2C12 cells; 5 ng/mL TNF-α): significantly decreased
- intracellular reactive oxidative stress (ROS) (C2C12 cells; 10 ng/mL TNF-α): significantly increased
- mitochondrial membrane potential (MMP) (C2C12 cells; 10 ng/mL TNF-α): significantly decreased

Compound: C[C@@H]1O[C@@H](O[C@@H]2[C@@H](O)[C@H](OCCc3ccc(O)c(O)c3)O[C@H](CO)[C@H]2OC(=O)/C=C/c2ccc(O)c(O)c2)[C@H](O)[C@H](O)[C@H]1O [verbascoside]
- protection of C2C12 cells against TNF-α induced injury (survival rate, MMP, ROS) ([1]; 1 to 100 μg/mL): could not protect
